Experimental data: patent US12508258B2, “Quinoline derivative for treating rheumatoid arthritis” (CHIA TAI TIANQING PHARMACEUTICAL GROUP CO., LTD., priority 2020, dated 2025)
Structures can show the parent of a compound that is named as a salt.

What was measured:
[1] = tested on: rheumatoid arthritis CIA model rats; assay: Rheumatoid arthritis CIA model, hind limb joint size monitoring (vernier caliper); assay type: in vivo; conditions: Wistar CIA rats, anlotinib 10 mg/kg; for joint swelling degree (ankle width and thickness) compared to model group: dexamethasone 0.1 mg/kg, FIGS. 2 and 3; for thickness of the hind limb ankle joints vs. model group / width of the hind limb ankle joints vs. model group: dexamethasone 0.1 mg/kg oral gavage once daily; for thickness of the hind limb ankle joints vs. model group: FIG. 3; for width of the hind limb ankle joints vs. model group: FIG. 2
Description: (§1) 15 SPF healthy male rats from Wistar with the weight of 160-180 g and purchased from Shanghai Institute of Planned Parenthood Research, with Certificate No. 20180006022473 in an SPF feeding environment.
(§2) Modeling group: on day 1 of the experiment, the primary immunization was performed. The animals in the modeling group were anesthetized with isoflurane. Four points were taken to inject the modeling agent on both sides of the spinal cord skin at the base of the tail of the rats. A total of 0.2 mL of CII/CFA molding emulsion was injected intradermally. On day 8 of the experiment, the second immunization was performed, and the operations were the same as those on day 1 of the experiment. Blank control group: equal volume of normal saline was injected.
(§3) After grouping, oral gavage administration was started according to the grouping requirements, and the administration volume was 10 mL/kg. The administration was carried out once daily for 14 days (from day 1 to day 14). On day 15, the animals were dissected after collection of relevant experimental data.
During the experiment, the width and thickness of the hind limb ankle joints of the rats in each group were measured with a vernier caliper on day 1, day 4, day 8, day 11 and day 15.

[2] = tested on: CIA rats; assay: CIA model rats, ankle joint histopathology (HE staining, lesion observation and scoring); assay type: in vivo; conditions: SD CIA rats; for joint lesions (histopathology) compared to model group: intragastric, once daily five days on/two days off, two weeks, formula I dihydrochloride 20 and 10 mg/kg, dexamethasone sodium phosphate 0.05 mg/kg
Description: (§4) After adaptive feeding of 80 SPF male SD rats with the weight of 140±10 g for 5 days, 10 male SD rats were randomly selected as a normal control group, and the rest were subjected to collagen-induced arthritis model modeling. The specific methods are as follows.
(§5) A solution of the bovine type II collagen (CII) in acetic acid (containing 2.0 mg·mL^−1 bovine CII) and an equal volume of complete Freund's adjuvant (CFA) were completely mixed, and the mixture was fully emulsified. The emulsion was added dropwise to water without diffusing as the degree, and finally the emulsion containing 1.0 mg·mL^−1 bovine CII was prepared. 0.2 mL of the emulsion was taken and injected intradermally into the dorsal and the base of the tail at four points (two points on the dorsal and two points on the base of the tail) for the primary immunization (d0). After day 7 (d7) of primary immunization, the emulsion was injected again as described above to boost the immunization. Then the arthritis index (AI) was scored on day 14 (d14). The highest score of each rat was 16 points, and the arthritis induction was considered successful if there was at least 1 paw with AI score≥2.
The CIA rats successfully modeled were randomly divided into a drug medium-dose group, a drug low-dose group and a model group, with 10 rats in each group. The normal group and the model group were subjected to intragastric administration with 0.02 mL·g^−1 normal saline; the drug medium-dose group and the drug low-dose group were administered with the dihydrochloride salt of the compound of formula I at 20 mg/kg and 10 mg/kg, respectively, (the vehicle was normal saline). The positive drug group was subjected to intragastric administration with dexamethasone sodium phosphate with the dose of 0.05 mg/kg. The rats was administered once daily from Monday to Friday (i.e., consecutively five-day administration and then two-day interruption). The dosing period was two weeks.
After the animal blood collection was finished, ankle joints were fixed in 10% formalin. The ankle joints were subjected to decalcification by 10% acetic acid and then were subjected to routine paraffin embedding, slicing and HE staining. The slices were observed by pathology professionals, and then the damage degree of joint synovial tissue, joint bones and cartilage tissue was observed and scored for comparison.
Observation of lesions and scoring: 1. whether the joint synovial cells are proliferated or eroded (denatured, necrotic), and whether the inflammatory cells infiltrate or not; 2. whether the pannus is formed (composed of blood vessels and fibroblasts); 3. whether the bony erosion (joint bone and cartilage) or hyperplasia exists; 5. whether the joint cavity has stenosis, disappearance and other lesions. The observation indexes were classified into 3 grades according to the severity of the lesions, which were respectively recorded as: 1 point for slight, 2 points for moderate, and 3 points for severe. 0 points means substantially normal. All scores were accumulated to obtain a total score, and the average score (mean±SD) of each animal in each group was calculated, and the higher the score, the more severe the lesion.

[3] = tested on: rheumatoid arthritis CIA model rats; assay: Rheumatoid arthritis CIA model, hind limb joint weight determination; assay type: in vivo; conditions: day 8; Wistar CIA rats; anlotinib 10 mg/kg, dexamethasone 0.1 mg/kg oral gavage once daily; FIG. 5
Description: as §1, §2, §3
On day 8, two rats in each group were dissected, and the weight of the hind limb joints was measured. The remaining animals were subjected to normal experiments according to the grouping schedule. On day 15, the remaining animals in each group were dissected, and the weight of the hind limb joints was measured.

[4] = tested on: rheumatoid arthritis CIA model rats; assay: Rheumatoid arthritis CIA model, joints photographing; assay type: in vivo; conditions: Wistar CIA rats; anlotinib 10 mg/kg, dexamethasone 0.1 mg/kg; FIGS. 6 and 7
Description: as §1, §2, §3
One rat in each group was selected, and the hind limb ankle joints thereof were photographed on day 4, day 8, day 11 and day 15.

[5] = Rheumatoid arthritis CIA model, weight monitoring; assay type: in vivo; conditions: Wistar CIA rats, oral gavage once daily 14 days, dexamethasone 0.1 mg/kg, FIG. 1; for weight of the rats, regain after treatment: anlotinib 10 mg/kg
Description: as §1, §2, §3
During the experiment, the weight of the rats in each group was measured once daily from the day of grouping and administration (day 1) to day 15.

[6] = tested on: rheumatoid arthritis CIA model rats; assay: Rheumatoid arthritis CIA model, hind limb joint lesion scoring; assay type: in vivo; conditions: Wistar CIA rats, anlotinib 10 mg/kg, dexamethasone 0.1 mg/kg oral gavage once daily, FIG. 4
Description: as §1, §2
After modeling was completed, the animals were normally observed and housed. After the hind limb joints of the animals were diseased, the animals were grouped according to the joint swelling degree and the joint score, wherein the scoring criteria were as follows: • clinical diagnostic scoring criteria for joint soft tissue swelling and joint mobility:
as §3
During the experiment, hind limb ankle joints of the rats in each group were scored for joint soft tissue swelling and joint mobility on day 1, day 4, day 8, day 11 and day 15.

[7] = tested on: human rheumatoid arthritis synovial cells; assay: MTT assay for the inhibition of human rheumatoid arthritis synovial cells; assay type: cell-based
Description: An MTT assay for the inhibition of human rheumatoid arthritis synovial cells using the dihydrochloride salt of the compound of formula I as the test drug: the trypsinized cell suspension was seeded in a 96-well plate at a volume of 100 μL per well, with 1×10^4 cells per well. The edges of the plate were wiped with sterile PBS. The plate was placed in a cell incubator and incubated at 37° C. with 5% CO2. After 24 h of incubation, the original culture solution in the wells was aspirated. Then 100 μL of culture solution with gradient concentration of drug was added to each well, and 6 concentrations were set, namely, 0 μM, 0.5 μM, 1 μM, 2 μM, 5 μM and 10 μM, respectively. The plate was placed in the incubator and incubated at 37° C. with 5% CO2. After 24 h and 48 h after dosing, 20 μL of MTS was added to each well. The plate was incubated at 37° C. for 1.5 h. The absorbance of each well at a wavelength of 540 nm was measured by a microplate reader, and the inhibition rate of cells in each group was calculated.
The calculation formula is as follows: cell inhibition rate/%=(1−[…])×100%

[8] = tested on: tumor necrosis factor-α (TNF-α); assay: CIA model rats, serum TNF-α by enzyme-linked immunosorbent assay; assay type: in vivo; conditions: SD CIA rats; day 28; 20 and 10 mg/kg
Description: as §4
as §5, with “The highest score of each rat was 16 points, and the arthritis induction was considered successful if there was at least 1 paw with AI score≥2.” left out
(§6) After day 28 of the experiment, the blood was collected from the abdominal aorta of the rats in each group, and the serum was separated. The tumor necrosis factor-α (TNF-α) and the interleukin-1β (IL-1β) were detected by enzyme-linked immunosorbent assay, and the specific method was carried out according to the specifications of the kit. […]

[9] = tested on: rat rheumatoid arthritis model; assay: Rat rheumatoid arthritis CIA model, overall drug efficacy; assay type: in vivo; conditions: Wistar CIA rats; anlotinib 10 mg/kg oral gavage once daily for 14 days
Description: as §1
15 rats were randomly divided into two groups according to the weight, blank control group (n=3) and modeling group (n=12).
as §2
The animals in the modeling group were divided into 3 groups according to the joint swelling degree and the joint scores: group-2 (n=4, model group), group-3 (n=4, positive control group), and group-4 (n=4, test drug group).
After grouping, oral gavage administration was started according to the grouping requirements, and the administration volume was 10 mL/kg. The administration was carried out once daily for 14 days (from day 1 to day 14). […]

[10] = tested on: interleukin-1β (IL-1β); assay: CIA model rats, serum IL-1β by enzyme-linked immunosorbent assay; assay type: in vivo; conditions: SD CIA rats; day 28; 20 and 10 mg/kg
Description: as §4
as §5, with “The highest score of each rat was 16 points, and the arthritis induction was considered successful if there was at least 1 paw with AI score≥2.” left out
as §6

[11] = tested on: CIA rats; assay: CIA model rats, determination of the rat paw swelling degree; assay type: in vivo; conditions: SD CIA rats; right hind paw thickness; 20 and 10 mg/kg
Description: as §4
as §5, with “The highest score of each rat was 16 points, and the arthritis induction was considered successful if there was at least 1 paw with AI score≥2.” left out
Determination of the rat paw swelling degree: before the primary immunization (d0), every 7 d (d7, d14) after the primary immunization and every 4 d after treatment, the thickness of the right hind paw of the rats was measured with a vernier caliper at the same position. […]

C[C@@H]1C[C@H]2[C@@H]3CCC4=CC(=O)C=C[C@]4(C)[C@@]3(F)[C@@H](O)C[C@]2(C)[C@@]1(O)C(=O)COP(=O)(O)O [dexamethasone sodium phosphate, reference compound]
joint swelling degree (ankle width and thickness) compared to model group [1]: improved to a certain extent | thickness of the hind limb ankle joints vs. model group ([1]; day 8): lower than that of the model group | width of the hind limb ankle joints vs. model group ([1]; day 15): lower than that of the model group | joint lesions (histopathology) compared to model group [2]: significantly reduced | weight of the hind limb joints vs. model group [3]: lower than that of the model group | joint swelling degree on photographs compared to model group [4]: improved to a certain extent | weight of the rats, regain after treatment [5]: began to regain from day 7 | weight of the rats, early stage (side effect) [5]: significant weight loss at the early stage | lesion scores of the hind limb ankle joints vs. model group ([6]; day 8): lower than those of the model group | lesion scores of the hind limb ankle joints vs. model group ([6]; day 11): lower than those of the model group | lesion scores of the hind limb ankle joints vs. model group ([6]; day 15): lower than those of the model group

COc1cc2c(Oc3ccc4[nH]c(C)cc4c3F)ccnc2cc1OCC1(N)CC1 [Anlotinib hydrochloride, 1-[[[4-(4-fluoro-2-methyl-1H-indol-5-yl)oxy-6-methoxyquinolin-7-yl]oxy]methyl]cyclopropylamine]
joint swelling degree (ankle width and thickness) compared to model group [1]: improved to a certain extent | width of the hind limb ankle joints vs. model group ([1]; day 4): lower than that of the model group | thickness of the hind limb ankle joints vs. model group ([1]; day 4): lower than that of the model group | width of the hind limb ankle joints vs. model group ([1]; day 8): lower than that of the model group | thickness of the hind limb ankle joints vs. model group ([1]; day 8): lower than that of the model group | width of the hind limb ankle joints vs. model group ([1]; day 15): lower than that of the model group | inhibition of proliferation of human rheumatoid arthritis synovial cells ([7]; 0.5, 1, 2, 5 and 10 μM compared with drug-free group at 0 μM, 24 h and 48 h after dosing): significantly inhibit the proliferation of human rheumatoid arthritis synovial cells | concentration dependence of the inhibitory effect on synovial cell proliferation ([7]; 0.5-10 μM): enhanced along with the increase of the concentration of the drug | dose dependence of joint improvement (histopathology) ([2]; 20 mg/kg and 10 mg/kg): improved in a dose-dependent manner | joint cavity stenosis compared with model group ([2]; 20 and 10 mg/kg): significantly improved | joint inflammatory infiltration compared with model group ([2]; 20 and 10 mg/kg): significantly reduced | synovium hyperplasia compared with model group ([2]; 20 and 10 mg/kg): significantly relieved | joint lesions (histopathology) compared to model group [2]: improved in different degrees | weight of the hind limb joints vs. model group [3]: lower than that of the model group | joint swelling degree on photographs compared to model group [4]: improved to a certain extent | content of TNF-α in the serum of rats compared with model group [8]: could reduce | weight of the rats, regain after treatment [5]: began to regain from day 7 | drug efficacy on the rat rheumatoid arthritis model (conclusion) [9]: significant drug efficacy | content of IL-1β in the serum of rats compared with model group [10]: could reduce | lesion scores of the hind limb ankle joints vs. model group ([6]; day 4): lower than those of the model group | lesion scores of the hind limb ankle joints vs. model group ([6]; day 8): lower than those of the model group | lesion scores of the hind limb ankle joints vs. model group ([6]; day 11): lower than those of the model group | lesion scores of the hind limb ankle joints vs. model group ([6]; day 15): lower than those of the model group | paw swelling degree compared with model group [11]: significantly reduced
